Laboratory results as given in ChEMBL document CHEMBL1201862, “PubChem BioAssay data set” (2004).
The source made the active and inactive calls.

Tests used:
[1] = biological target: T1, Heat shock factor protein 1 (Mus musculus, UniProt P38532); experiment: HSF1 potentiators in luciferase reporter cells, confirmation, cell-based, NIH3T3, luminescence, dose retest (AID 435004); assay type: functional;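 further: stress induced by proteasome inhibitor MG132 added 30 min after compound; luciferase reporter driven by HSF1 response element in NIH3T3 cells; actives raise luminescence as potentiators of the MG132 stress response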
T1 sequence (P38532 whole entry): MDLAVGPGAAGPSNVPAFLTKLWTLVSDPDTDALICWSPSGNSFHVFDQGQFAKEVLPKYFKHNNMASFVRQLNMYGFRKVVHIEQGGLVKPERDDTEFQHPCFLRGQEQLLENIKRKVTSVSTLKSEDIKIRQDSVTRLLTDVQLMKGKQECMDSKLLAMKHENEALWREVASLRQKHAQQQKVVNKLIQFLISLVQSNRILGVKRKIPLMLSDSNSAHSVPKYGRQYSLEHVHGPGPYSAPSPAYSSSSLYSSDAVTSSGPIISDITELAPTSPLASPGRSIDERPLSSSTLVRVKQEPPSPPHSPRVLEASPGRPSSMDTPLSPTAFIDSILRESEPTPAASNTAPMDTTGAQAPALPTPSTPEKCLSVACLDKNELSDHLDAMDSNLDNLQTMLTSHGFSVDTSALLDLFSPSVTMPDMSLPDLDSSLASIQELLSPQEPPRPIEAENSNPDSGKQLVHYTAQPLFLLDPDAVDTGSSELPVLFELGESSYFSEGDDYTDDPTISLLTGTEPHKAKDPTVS

cells = assay type: functional
Cytochrome P450 1A2 = biological target: T2, Cytochrome P450 1A2 (Homo sapiens, UniProt P05177);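 further: PubChem cytochrome P450 panel assay, CYP1A2 panel member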
T2 sequence (P05177 whole entry): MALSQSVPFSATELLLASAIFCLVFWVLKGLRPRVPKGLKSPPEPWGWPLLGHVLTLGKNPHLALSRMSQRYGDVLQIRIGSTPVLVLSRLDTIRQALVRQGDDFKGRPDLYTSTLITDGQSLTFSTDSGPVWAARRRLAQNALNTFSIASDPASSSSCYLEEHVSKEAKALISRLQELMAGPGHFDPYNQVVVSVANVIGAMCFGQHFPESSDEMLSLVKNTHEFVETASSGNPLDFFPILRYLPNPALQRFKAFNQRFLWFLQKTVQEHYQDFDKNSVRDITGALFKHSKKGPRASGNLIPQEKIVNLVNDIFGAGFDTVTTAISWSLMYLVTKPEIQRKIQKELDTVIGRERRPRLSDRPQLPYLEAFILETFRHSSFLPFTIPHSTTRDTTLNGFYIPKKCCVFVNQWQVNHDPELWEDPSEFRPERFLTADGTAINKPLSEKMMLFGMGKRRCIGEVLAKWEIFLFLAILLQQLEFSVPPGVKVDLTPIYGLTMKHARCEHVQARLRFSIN

Cytochrome P450 2D6 = Cytochrome P450 2D6 (Homo sapiens, UniProt P10635);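 further: CYP2D6 member of a cytochrome P450 panel assay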
Cytochrome P450 2D6, sequence (P10635 whole entry): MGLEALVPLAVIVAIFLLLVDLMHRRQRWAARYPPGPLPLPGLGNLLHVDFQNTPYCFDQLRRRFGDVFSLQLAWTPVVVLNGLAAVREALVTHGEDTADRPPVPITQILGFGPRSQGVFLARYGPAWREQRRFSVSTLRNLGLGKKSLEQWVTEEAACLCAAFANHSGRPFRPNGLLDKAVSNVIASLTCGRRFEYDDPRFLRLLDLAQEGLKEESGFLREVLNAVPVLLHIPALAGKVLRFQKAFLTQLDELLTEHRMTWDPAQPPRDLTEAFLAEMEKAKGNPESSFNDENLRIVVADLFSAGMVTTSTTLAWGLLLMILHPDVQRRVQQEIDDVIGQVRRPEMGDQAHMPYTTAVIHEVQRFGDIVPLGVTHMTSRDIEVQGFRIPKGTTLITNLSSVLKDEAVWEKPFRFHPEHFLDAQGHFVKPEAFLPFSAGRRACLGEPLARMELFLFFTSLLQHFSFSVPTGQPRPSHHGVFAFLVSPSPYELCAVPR

Cytochrome P450 2C9 = Cytochrome P450 2C9 (Homo sapiens, UniProt P11712)
Cytochrome P450 2C9, sequence (P11712 whole entry): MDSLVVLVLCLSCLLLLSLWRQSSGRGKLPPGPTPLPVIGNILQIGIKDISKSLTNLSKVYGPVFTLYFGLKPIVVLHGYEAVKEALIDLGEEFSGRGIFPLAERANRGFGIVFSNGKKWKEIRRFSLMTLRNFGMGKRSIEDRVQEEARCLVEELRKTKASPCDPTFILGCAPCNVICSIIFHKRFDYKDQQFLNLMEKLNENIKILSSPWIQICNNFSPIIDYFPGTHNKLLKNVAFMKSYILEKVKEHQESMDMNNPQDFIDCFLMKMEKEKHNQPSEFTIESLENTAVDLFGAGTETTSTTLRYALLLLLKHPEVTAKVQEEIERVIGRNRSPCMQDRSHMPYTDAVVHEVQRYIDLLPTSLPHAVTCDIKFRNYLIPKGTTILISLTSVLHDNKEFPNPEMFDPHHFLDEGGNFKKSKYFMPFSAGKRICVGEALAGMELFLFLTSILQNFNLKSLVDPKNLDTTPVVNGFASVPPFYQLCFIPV

Cytochrome P450 2C19 = Cytochrome P450 2C19 (Homo sapiens, UniProt P33261); experiment: Cytochrome panel assay with activity outcomes. Panel member name: p450-cyp2c19 Compounds with AC50 equal or less than 10 uM are considered active; assay type: functional
Cytochrome P450 2C19, sequence (P33261 whole entry): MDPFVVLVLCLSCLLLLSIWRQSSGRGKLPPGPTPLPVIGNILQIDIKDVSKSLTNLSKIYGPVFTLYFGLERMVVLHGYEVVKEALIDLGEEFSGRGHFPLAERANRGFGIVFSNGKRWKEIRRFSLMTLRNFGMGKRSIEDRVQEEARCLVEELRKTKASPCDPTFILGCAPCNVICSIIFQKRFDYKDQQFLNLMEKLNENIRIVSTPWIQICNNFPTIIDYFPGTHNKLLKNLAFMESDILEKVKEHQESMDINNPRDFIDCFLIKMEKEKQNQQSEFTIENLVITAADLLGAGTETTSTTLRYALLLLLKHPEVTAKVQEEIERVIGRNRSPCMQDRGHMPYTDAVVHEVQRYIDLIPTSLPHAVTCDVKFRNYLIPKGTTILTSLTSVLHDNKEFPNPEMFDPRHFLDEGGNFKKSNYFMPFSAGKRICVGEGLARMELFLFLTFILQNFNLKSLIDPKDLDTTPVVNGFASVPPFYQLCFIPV

Protein skinhead-1 = biological target: T3, Protein skinhead-1 (Caenorhabditis elegans, UniProt P34707); assay type: functional
T3 sequence (P34707 whole entry): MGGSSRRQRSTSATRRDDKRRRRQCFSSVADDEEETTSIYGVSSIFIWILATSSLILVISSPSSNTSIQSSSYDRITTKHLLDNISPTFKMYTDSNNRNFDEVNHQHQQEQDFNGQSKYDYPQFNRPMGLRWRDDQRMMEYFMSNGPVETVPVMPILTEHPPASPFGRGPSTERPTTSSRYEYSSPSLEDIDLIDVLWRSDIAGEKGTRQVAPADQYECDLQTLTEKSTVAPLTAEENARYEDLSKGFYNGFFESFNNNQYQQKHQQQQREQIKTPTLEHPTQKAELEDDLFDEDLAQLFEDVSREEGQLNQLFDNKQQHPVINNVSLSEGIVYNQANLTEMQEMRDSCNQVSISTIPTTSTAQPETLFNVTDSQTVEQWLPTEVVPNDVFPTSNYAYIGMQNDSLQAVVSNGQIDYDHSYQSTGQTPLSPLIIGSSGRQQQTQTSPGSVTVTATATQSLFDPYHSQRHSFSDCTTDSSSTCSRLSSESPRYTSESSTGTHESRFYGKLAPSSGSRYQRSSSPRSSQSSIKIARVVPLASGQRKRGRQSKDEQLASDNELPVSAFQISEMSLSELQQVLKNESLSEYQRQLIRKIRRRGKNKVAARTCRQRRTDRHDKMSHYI

H9c2 = experiment: cells; assay type: functional, cell-based; details: Rattus norvegicus, H9c2, Myocardium;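 further: confirmatory concentration-response retest of ultra-high-throughput screening hits for modulation of myocardial damage; cell death induced by hydrogen peroxide oxidative stress; compound pretreatment for 60 min then peroxide exposure for 2 h; potency is for protecting the cells against peroxide damage rather than for killing them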
Cytochrome P450 3A4 = Cytochrome P450 3A4 (Homo sapiens, UniProt P08684);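 further: CYP3A4 tested as one member of a cytochrome P450 panel screen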
Cytochrome P450 3A4, sequence (P08684 whole entry): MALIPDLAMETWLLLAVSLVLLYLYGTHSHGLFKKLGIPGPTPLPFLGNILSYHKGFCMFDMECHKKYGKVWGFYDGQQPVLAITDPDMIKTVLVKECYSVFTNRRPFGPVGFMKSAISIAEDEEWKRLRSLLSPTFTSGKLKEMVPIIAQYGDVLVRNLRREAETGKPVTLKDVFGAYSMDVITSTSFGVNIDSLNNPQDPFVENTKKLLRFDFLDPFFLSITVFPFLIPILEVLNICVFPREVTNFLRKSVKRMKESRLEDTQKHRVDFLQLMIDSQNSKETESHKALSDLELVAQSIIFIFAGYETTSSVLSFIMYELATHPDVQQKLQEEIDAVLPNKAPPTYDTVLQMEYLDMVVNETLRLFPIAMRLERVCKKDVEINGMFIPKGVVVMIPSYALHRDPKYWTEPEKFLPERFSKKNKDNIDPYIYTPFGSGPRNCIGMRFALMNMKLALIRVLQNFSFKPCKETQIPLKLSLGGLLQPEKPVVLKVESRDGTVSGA

[2] = biological target: T4, Corticotropin-releasing factor receptor 2/Corticotropin-releasing factor-binding protein (Homo sapiens, UniProt P24387+Q13324); experiment: Dose Response confirmation of uHTS hits for small molecule antagonists of the CRF-binding protein and CRF-R2 receptor complex.; assay type: functional; details: read-out: IC50_Mean
T4 sequence (Q13324 whole entry): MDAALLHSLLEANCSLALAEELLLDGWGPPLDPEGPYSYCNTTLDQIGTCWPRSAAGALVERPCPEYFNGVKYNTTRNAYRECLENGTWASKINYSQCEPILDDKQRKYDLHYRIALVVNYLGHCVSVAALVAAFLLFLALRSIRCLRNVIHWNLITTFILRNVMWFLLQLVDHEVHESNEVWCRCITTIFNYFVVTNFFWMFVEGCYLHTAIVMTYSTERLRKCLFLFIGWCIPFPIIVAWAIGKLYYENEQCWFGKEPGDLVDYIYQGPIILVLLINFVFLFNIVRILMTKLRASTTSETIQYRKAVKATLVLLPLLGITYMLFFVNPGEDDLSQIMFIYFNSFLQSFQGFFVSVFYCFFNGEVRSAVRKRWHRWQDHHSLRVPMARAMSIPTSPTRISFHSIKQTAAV
T4 sequence (P24387 whole entry): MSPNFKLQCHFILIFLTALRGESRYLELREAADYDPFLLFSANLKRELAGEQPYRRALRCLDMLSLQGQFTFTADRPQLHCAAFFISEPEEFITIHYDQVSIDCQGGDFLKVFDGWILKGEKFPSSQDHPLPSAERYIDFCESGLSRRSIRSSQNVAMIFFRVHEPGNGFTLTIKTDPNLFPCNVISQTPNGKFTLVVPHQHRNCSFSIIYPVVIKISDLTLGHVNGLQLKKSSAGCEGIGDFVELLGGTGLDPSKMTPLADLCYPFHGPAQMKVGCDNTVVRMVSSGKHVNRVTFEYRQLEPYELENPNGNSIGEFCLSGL

[3] = biological target: T4, Corticotropin-releasing factor receptor 2/Corticotropin-releasing factor-binding protein; experiment: activators of CRF receptor 2 with binding protein – uHTS hits, confirmation (AID 602473); assay type: functional; details: read-out: EC50_Mean
[4] = Luminescence Cell-Based Dose Retest to Confirm Inhibitors of Cancer Stem Cells. [Related pubchem assays (depositor defined):AID2717, AID2721]; assay type: functional; details: Homo sapiens

CCC(C)NC(=O)CC(NS(=O)(=O)c1ccc(Cl)cc1)c1ccco1 (centres undefined)
EC50 [1]: > 260 µM (inactive)

COC(=O)c1cc(/C=C/c2ccccc2)on1
IC50 (cells): 5.44 µM (active)
AC50 (Cytochrome P450 1A2): 2 µM (inconclusive)

O=C(Nc1ccc(Cl)cc1)OCc1cc(-c2ccccc2)on1
AC50 (Cytochrome P450 2D6): 3.98 µM (inconclusive)
AC50 (Cytochrome P450 2C9): 2.82 µM (inconclusive)

CCN1C(=O)C2(SC(NC(C)=O)=NN2C(C)=O)c2cc(C)ccc21 (centres undefined)
AC50 (Cytochrome P450 2C19; read-out: AC50): 14.1 µM (inconclusive)
AC50 (Cytochrome P450 2C9): 31.6 µM (inconclusive)

O=c1c(-c2ccccc2)nc2cnc(N3CCOCC3)nc2n1Cc1ccc(F)cc1
AC50 (Cytochrome P450 1A2): 20 µM (inconclusive)
AC50 (Cytochrome P450 2C9): 15.8 µM (inconclusive)

Cc1ccc(C(=O)OCC(=O)N2CCCCCC2)c(O)c1
IC50 (cells): 11.1 µM (active)

CCOc1ccc(S(=O)(=O)NCCSc2ccccc2)cc1
EC50 [1]: > 260 µM (inactive)

CCOC(=O)CN1NC2(CCCC(C)C2)N=C1S (centres undefined)
IC50 (cells): 48.9 µM (active)

Clc1ccc(Nc2ncnc3c2cnn3-c2ccccc2)cc1
IC50 (Protein skinhead-1): > 100 µM (inactive)

CCOC(=O)C1CCN(C(=O)COc2cc(C)c(Br)c(C)c2)CC1
IC50 (cells): 30.2 µM (active)

Cc1cccc(C)c1NCc1nnc(SCC(=O)Nc2nc(-c3ccccc3)cs2)n1-c1ccccc1
EC50 [1]: > 260 µM (inactive)

O=[N+]([O-])c1ccc(Cc2nnc(O)c3ccccc23)cc1
IC50 (H9c2): > 79 µM (inactive)
IC50 (Protein skinhead-1): > 100 µM (inactive)

Cc1ccc(C(=O)N(C)CC(=O)Nc2ccc(N3CCOCC3)cc2)s1
IC50 (Protein skinhead-1): > 100 µM (inactive)

COc1cc(/C=C/c2ccc3c([N+](=O)[O-])cccc3n2)ccc1OCC(=O)O
IC50 (cells): 2.39 µM (active)

CC(=O)Oc1ccc(/C=C2\N=C(C3CCCCC3)OC2=O)cc1
IC50 (cells): 33.9 µM (active)

Cc1ccc(N2Cc3ccccc3OC(C)C2=O)cc1 (centres undefined)
EC50 [1]: > 260 µM (inactive)

CC(C)[C@@H]1O[C@H](/C=C\c2ccccc2)OCC1(C)C
AC50 (Cytochrome P450 2C19; read-out: AC50): 5.01 µM (inconclusive)
AC50 (Cytochrome P450 3A4): 5.01 µM (inconclusive)
AC50 (Cytochrome P450 2C9): 3.16 µM (inconclusive)

Cc1ccc(/C=C2\OC(=O)c3ccccc32)cc1
AC50 (Cytochrome P450 2C9): 0.355 µM (inconclusive)

COc1ccc([N+](=O)[O-])cc1NCc1ccccc1C
AC50 (Cytochrome P450 2D6): 17.8 µM (inconclusive)
AC50 (Cytochrome P450 2C9): 17.8 µM (inconclusive)

O=C(CCN1CCCCC1=O)NC1CCCN(Cc2ccc(Cl)cc2)C1 (centres undefined)
IC50 [2]: > 47.1 µM (inactive)
EC50 [3]: > 53 µM (inactive)

CC(=O)CSc1nc2ccccc2s1
IC50 (Protein skinhead-1): > 100 µM (inactive)

O=c1c(CCc2ccccc2)nc2cnc(N3CCOCC3)nc2n1CCc1ccccc1
AC50 (Cytochrome P450 1A2): 25.1 µM (inconclusive)
AC50 (Cytochrome P450 2C9): 2 µM (inconclusive)

CN(C)/C=C/C(=O)c1cccc(Oc2ncccn2)c1
EC50 [1]: > 260 µM (inactive)

CC(C)(CN)CC(=O)O
EC50 [1]: > 260 µM (inactive)

COC(=O)C(C)Sc1nc2c(c(=O)n(C)c(=O)n2C)n1CCC(C)C (centres undefined)
EC50 [1]: > 260 µM (inactive)

O=[N+]([O-])c1cccc2ccc(/C=C/c3ccc(F)cc3)nc12
IC50 (Protein skinhead-1): > 100 µM (inactive)

O=C1CC(N(Cc2ccc3c(c2)OCO3)C(=O)Nc2ccc(F)cc2)C(=O)N1c1ccccc1 (centres undefined)
EC50 [1]: > 260 µM (inactive)

CC(/C=C/c1cccs1)=C\C(=O)O
EC50 [1]: > 260 µM (inactive)

CCc1ccc(-n2c(SCC(=O)Nc3cc(C)[nH]n3)nc3nncc-3c2O)cc1
IC50 (Protein skinhead-1): > 100 µM (inactive)

CCOC(=O)C1=C(C)N=C(C)/C(=C(\O)OCC)C1c1sccc1C (centres undefined)
AC50 (Cytochrome P450 2C9): 0.891 µM (inconclusive)

O=C(O)c1ccc2c(c1)CCCN2
IC50 (Protein skinhead-1): > 100 µM (inactive)

Cc1noc(C(F)(F)F)c1C(=O)NNC(=O)c1cccc(C(F)(F)F)c1
IC50 [2]: > 47.1 µM (inactive)
EC50 [3]: > 53 µM (inactive)

COc1ccccc1C(OC(=O)c1cccs1)C(=O)NCC1CCCO1 (centres undefined)
AC50 (Cytochrome P450 2C19; read-out: AC50): 5.01 µM (inconclusive)
AC50 (Cytochrome P450 1A2): 14.1 µM (inconclusive)
AC50 (Cytochrome P450 3A4): 25.1 µM (inconclusive)
AC50 (Cytochrome P450 2C9): 14.1 µM (inconclusive)

Cc1ccc(-n2nc3c(c2NC(=O)c2ccc(OC(C)C)cc2)C[S+]([O-])C3)cc1 (centres undefined)
IC50 [2]: > 47.1 µM (inactive)
EC50 [3]: > 53 µM (inactive)

NC(=O)c1ccc([N+](=O)[O-])cc1SCc1ccccc1
AC50 (Cytochrome P450 3A4): 12.6 µM (inconclusive)
AC50 (Cytochrome P450 2C9): 28.2 µM (inconclusive)

COc1ccc(OC)c(-n2c(=O)c3ccccc3c3ccccc3c2=O)c1
EC50 [1]: 30.2 µM (active)

CCCCc1cc(=O)oc2cc(OCC(=O)N(CC)CC)ccc12
AC50 (Cytochrome P450 2C19; read-out: AC50): 31.6 µM (inconclusive)
AC50 (Cytochrome P450 2C9): 25.1 µM (inconclusive)

O=C1Nc2ccccc2C(O)(C(=O)NCc2ccco2)N1c1ccc(Cl)c(Cl)c1 (centres undefined)
IC50 (Protein skinhead-1): > 100 µM (inactive)

Cc1ccc(C(=O)NC(=S)Nc2cccc3nsnc23)cc1
AC50 (Cytochrome P450 2C19): inconclusive
AC50 (Cytochrome P450 2C9): 35.5 µM (inconclusive)

Nc1cc2c(cc1Cl)-c1ccccc1C2
IC50 (Protein skinhead-1): 52.5 µM (inactive)

CC(C)N(C(=O)C[n+]1ccsc1N)c1ccccc1
IC50 [2]: > 47.1 µM (inactive)
EC50 [3]: > 53 µM (inactive)

COc1ccccc1C(=O)NCCC(=O)N1CCN(c2ccccc2O)CC1
IC50 [2]: > 47.1 µM (inactive)
EC50 [3]: > 53 µM (inactive)

Cc1cccn2c(/C=N/OCc3cccc(F)c3)c(-c3ccc(Cl)cc3)nc12
AC50 [4]: 4.13 µM (active)
IC50 [2]: > 47.1 µM (inactive)
EC50 [3]: > 53 µM (inactive)
AC50 (Cytochrome P450 3A4): 14.1 µM (inconclusive)

O=[N+]([O-])c1ccc(/C=N/NS(=O)(=O)c2ccc(Cl)cc2)o1
IC50 (cells): 6.23 µM (active)

O=C1c2ccccc2C(Cc2ccncc2)(Cc2ccncc2)c2ccccc21
AC50 (Cytochrome P450 1A2): 39.8 µM (inconclusive)
AC50 (Cytochrome P450 2C9): 20 µM (inconclusive)
